Experimental data published in patent US20130280169A1, “CENTRAL NERVOUS SYSTEM TISSUE-LABELING COMPOSITION, METHOD FOR LABELING CENTRAL NERVOUS SYSTEM TISSUE, AND SCREENING METHOD USING CENTRAL NERVOUS SYSTEM TISSUE-LABELING COMPOSITION” (CANON KABUSHIKI KAISHA, priority 2009, published 2013).

Experiments:
[1] = test system: central nervous system tissues of juvenile zebrafish (7 dpf); test: Labeling the central nervous system tissue of live 7 dpf juvenile zebrafish by immersion in labeling solution; conditions: for Labeling property / Fluorescence sensitivity: labeling solution 1 μg/mL
Procedure: Subsequently, the labeling solution 1 in the well was removed and replaced by 1 mL of distilled water. This operation was repeated three times. Then, juvenile zebrafish was removed from the well and embedded in 5% low melting point agarose gel on a slide glass so as to restrict movement, and the state of labeling in the central nervous system tissues were observed from the lateral side of zebrafish by a fluorescence stereomicroscope (manufactured by Leica Microsystems, MZ16FA). Also, the brain nerve tissues were observed from the parietal region by a confocal microscope (manufactured by Carl Zeiss, Inc., Pascal Exciter).

[2] = Excitation and fluorescence wavelength by FL4500 fluorescence spectrophotometer; conditions: for λem / λex: 10 mg/mL DMSO solution diluted 500-fold with distilled water
[3] = test system: mouse brain; test: Labeling of mouse brain after intraperitoneal administration; type: in vivo; conditions: 3-month-old B10 mouse, 0.2 ml single intraperitoneal dose, brain collected after one hour
Procedure: The compound (13) is added to an equimolar solution of NaOH so that a concentration of 10 mg/ml is reached, and the resulting mixture is centrifuged at 14 krpm for five minutes to obtain a supernatant. Then, 0.2 ml of the supernatant thus obtained is intraperitoneally administered to a 3-month-old B10 mouse in a single dose. After one hour, the animal thus treated is sacrificed by diethyl ether anesthesia, and the brain is collected. The brain thus removed is embedded in an OCT compound, and then frozen in isopentane cooled with liquid nitrogen. The resulting brain was sliced into thin sections of approximately 10 μm in thickness in a cryostat cooled to −20° C. The thin sections were then placed on a slide glass and dried, whereby a section of the brain tissue was prepared. The brain tissue section thus prepared was observed under a confocal microscope (manufactured by Carl Zeiss, Inc., Pascal Exciter).
After one hour, the animal thus treated is sacrificed by diethyl ether anesthesia, and the brain is collected. The brain thus removed is embedded in an OCT compound, and then frozen in isopentane cooled with liquid nitrogen. The resulting brain was sliced into thin sections of approximately 10 μm in thickness in a cryostat cooled to −20° C. The thin sections were then placed on a slide glass and dried, whereby a section of the brain tissue was prepared. […]

[4] = test system: mouse brain tissue section; test: Labeling of a mouse brain tissue section, confocal microscope; conditions: 3-month-old B10 mouse, 10 μm frozen section, 1 ug/mL in PBS, incubation one hour
Procedure: (§1) A 3-month-old B10 mouse was sacrificed by diethyl ether anesthesia, and the brain is collected. The brain thus removed is embedded in an OCT compound, and then frozen in isopentane cooled with liquid nitrogen. The resulting brain was sliced into thin sections of approximately 10 μm in thickness in a cryostat cooled to −20° C. The thin sections were then placed on a slide glass and dried, whereby a section of the brain tissue was prepared. To the section of […] tissue thus prepared, a 1 ug/mL solution of the compound (13) in PBS was added, followed by incubation for one hour. After one hour, the slide glass was washed with PBST (PBS containing 0.2% Triton-X100) three times, and then sealed with a cover glass. Upon observation of the slide glass by a confocal microscope (manufactured by Carl Zeiss, Inc., Pascal
as §1, with “(27)” for “(13)”, “After one hour, the slide glass was washed with PBST (PBS containing 0.2% Triton-X100) three times, and then sealed with a cover glass. Upon observation of the slide glass by a confocal microscope (manufactured by Carl Zeiss, Inc., Pascal” left out

[5] = 7 dpf juvenile zebrafish, one hour
[6] = juvenile zebrafish, one hour (Table 2)
[7] = aqueous solution, 10 mg/mL DMSO solution diluted 500-fold with distilled water (Table 2)
[8] = 5 μM chloroform solution (Examples 30 to 34)

## Cn1c(=O)cc2c3c(c(NC4CCCCC4)ccc31)C(=O)c1ccccc1-2 [(8)]
[1]; [5]
  Labeling property: ++
[1]; 7 dpf juvenile zebrafish, one hour, fluorescence stereomicroscope and confocal microscope
  State of labeling of optic nerve, optic tract, superior colliculus (optic tectum), pituitary gland, tectospinal (tectobulbar) tract and reticular formation: intensely labeled
[2]; aqueous solution
  λem: 619
  λex: 599

## Cn1c(=O)cc2c3c(c(NCc4ccccc4)ccc31)C(=O)c1ccccc1-2 [(9)]
[1]; [5]
  Labeling property: ++
[2]; aqueous solution
  λem: 556
  λex: 480

## CCN(CC)c1ccc2cc3c(oc2c1)c(C#N)c(=N)n1c2ccccc2nc31 [(10)]
[1]; [5]
  Labeling property: ++
[2]; aqueous solution
  λem: 577
  λex: 556

## CCN(CC)c1ccc2cc3c(oc2c1)c(C#N)c(=O)n1c2ccccc2nc31 [(11)]
[1]; [5]
  Labeling property: +
[2]; aqueous solution
  λem: 576
  λex: 555

## CCCCNc1ccc2c3c(cccc13)C(=O)N(CCCC)C2=O [(12)]
[1]; [5]
  Labeling property: ++
[2]; aqueous solution
  λem: 551
  λex: 466

## CCN1c2ccc(/C=C3/SC(=S)N(CCC(=O)O)C3=O)cc2C2CCCC21 (centres unmarked) [(13)]
[1]; [5]
  Labeling property: ++
[2]; aqueous solution
  λem: 604
  λex: 576
[3]
  Labeling property in a mouse brain by intraperitoneal administration: confirmed to exert a labeling property
[4]
  Labeling property in a mouse brain tissue section: confirmed to exert a labeling property

## CCN1C(=S)N(c2ccccc2)C(=O)/C1=C/C=C1/Sc2ccccc2N1CC [(14)]
[1]; [5]
  Labeling property: ++
[2]; aqueous solution
  λem: 560
  λex: 530

## CCN(CC)c1ccc2cc(-c3nc4ccccc4s3)c(=O)oc2c1 [Compound 15]
[1]; [6]
  Fluorescence sensitivity: ++
  Labeling property: ++
[2]; [7]
  Excitation wavelength λex: 469
  Fluorescence wavelength λem: 555
  Stokes shift λem − λex: 86

## COc1ccc2cc(-c3nc4ccccc4[nH]3)c(=N)oc2c1 [Compound 16]
[1]; [6]
  Fluorescence sensitivity: +
  Labeling property: +
[2]; [7]
  Excitation wavelength λex: 380
  Fluorescence wavelength λem: 470
  Stokes shift λem − λex: 90

## N=c1oc2ccc3ccccc3c2cc1-c1nc2ccccc2[nH]1 [Compound 17]
[1]; [6]
  Fluorescence sensitivity: +
  Labeling property: +
[2]; [7]
  Excitation wavelength λex: 410
  Fluorescence wavelength λem: 490
  Stokes shift λem − λex: 80

## CCN(CC)c1ccc2cc(-c3nc4ccccc4[nH]3)c(=N)oc2c1 [Compound 18]
[1]; [6]
  Fluorescence sensitivity: ++
  Labeling property: ++
[2]; [7]
  Excitation wavelength λex: 464
  Fluorescence wavelength λem: 514
  Stokes shift λem − λex: 50

## COc1ccc2cc(-c3nc4ccccc4[nH]3)c(=O)oc2c1 [Compound 20]
[1]; [6]
  Fluorescence sensitivity: +
  Labeling property: +
[2]; [7]
  Excitation wavelength λex: 380
  Fluorescence wavelength λem: 470
  Stokes shift λem − λex: 90

## COc1cccc2cc(-c3nc4ccccc4[nH]3)c(=O)oc12 [Compound 22]
[1]; [6]
  Fluorescence sensitivity: +
  Labeling property: +
[2]; [7]
  Excitation wavelength λex: 360
  Fluorescence wavelength λem: 510
  Stokes shift λem − λex: 150

## CCN(CC)c1ccc2cc(-c3nc4cc(Cl)ccc4o3)c(=O)oc2c1 [Compound 23]
[1]; [6]
  Fluorescence sensitivity: +
  Labeling property: ++
[2]; [7]
  Excitation wavelength λex: 422
  Fluorescence wavelength λem: 476
  Stokes shift λem − λex: 54

## Cc1ccc2oc(=O)c(-c3nc4ccccc4[nH]3)cc2c1 [Compound 24]
[1]; [6]
  Fluorescence sensitivity: +
  Labeling property: +
[2]; [7]
  Excitation wavelength λex: 380
  Fluorescence wavelength λem: 490
  Stokes shift λem − λex: 110

## CCCN(CCC)c1ccc2cc(-c3nc4ccccc4[nH]3)c(=O)oc2c1 [Compound 25]
[1]; [6]
  Fluorescence sensitivity: ++
  Labeling property: ++
[2]; [7]
  Excitation wavelength λex: 463
  Fluorescence wavelength λem: 509
  Stokes shift λem − λex: 46

## CCN(CC)c1ccc2cc(-c3nc4ccc(C)cc4o3)c(=O)oc2c1 [Compound 27]
[1]; [6]
  Fluorescence sensitivity: ++
  Labeling property: ++
[2]; [7]
  Excitation wavelength λex: 472
  Fluorescence wavelength λem: 504
  Stokes shift λem − λex: 32
[4]
  Labeling property in a mouse brain tissue section: confirmed to exert a labeling property

## O=c1oc2ccc3ccccc3c2cc1-c1nc2ccccc2[nH]1 [Compound 28]
[1]; [6]
  Fluorescence sensitivity: +
  Labeling property: +
[2]; [7]
  Excitation wavelength λex: 410
  Fluorescence wavelength λem: 540
  Stokes shift λem − λex: 130

## O=C1c2ccccc2-c2cc(=O)n(C3CCCCC3)c3ccc(NC4CCCCC4)c1c23 [Compound 29]
[1]; 7 dpf juvenile zebrafish, one hour (Table 3)
  Fluorescence sensitivity: +
[2]; [8]
  Excitation wavelength λex: 547
  Fluorescence wavelength λem: 592
